# “And” between values parts separate entries of the source, which are not always exact repeats. Equal values may be shown once.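 Cells were grown in 96-well plates and exposed to each compound for 48 hours at five concentrations; endpoints were interpolated linearly between bracketing concentrations, or set to the highest concentration if not reached. GI50: concentration for 50% inhibition of growth. TGI is the concentration that stops growth completely.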
# Columns and labels:
# Experiment in all cases: NCI anticancer screen, dose series, 48 h
# [1] = tested on: ACHN renal
# [2] = tested on: LOX IMVI melanoma
# [3] = tested on: SNB-19 CNS
# [4] = tested on: HOP-92 NSCLC
# [5] = tested on: DLD-1 colon
# [6] = tested on: MOLT-4 leukemia
# [7] = tested on: SW-620 colon
# [8] = tested on: LXFL 529 NSCLC
# [9] = tested on: OVCAR-5 ovarian
# [10] = tested on: RXF 393 renal
Structure (SMILES),TGI [1],TGI [2],GI50 [3],TGI [3],GI50 [4],TGI [4],GI50 [5],TGI [5],GI50 [6],GI50 [7],TGI [7],TGI [8],GI50 [9],GI50 [10],TGI [10],TGI [6],TGI [9]
CC[C@@]1(O)C(=O)OCc2c1cc1n(c2=O)Cc2cc3cc(O)ccc3nc2-1,0.457 µM,1.17 µM and 0.224 µM,9.46 nM,75 µM and > 23.4 µM,23.9 nM,0.107 µM and 0.513 µM,514 nM,75 µM and > 87.2 µM,11 nM,17.9 nM and < 15.4 nM,22.9 µM and 3.78 µM,1.91 µM,122 nM,31.1 nM,0.165 µM and 0.222 µM,–,–
CC(C)(C)c1cc(Cc2ccc(S(C)(=O)=O)cc2)c(O)c(C(C)(C)C)c1,26.6 µM,27.7 µM,–,29 µM,–,–,–,33 µM,–,–,31.2 µM,29.2 µM,–,–,26.1 µM,27.4 µM,27.4 µM
O=C(Nc1ccc(Nc2ccc(NC(=O)c3ccccc3)c3c2C(=O)c2ccccc2C3=O)c2c1C(=O)c1ccccc1C2=O)c1ccccc1,> 100 µM,–,–,> 100 µM,–,–,–,> 100 µM,–,–,> 100 µM,> 100 µM,–,–,> 100 µM,> 100 µM,–
Cc1cc(NS(=O)(=O)c2ccc(NC(=O)c3cccc4c(Nc5ccc(S(=O)(=O)Nc6cc(C)on6)cc5)c5ccc(Cl)cc5nc34)cc2)no1,> 100 µM,> 100 µM,–,81.8 µM,–,80.5 µM,–,> 100 µM,–,–,> 100 µM,> 100 µM,–,–,> 100 µM,> 100 µM,> 100 µM
O=C1CCC2(c3ccccc3)OCC([C@@H](O)c3ccccc3)N12 (stereo not given in full),> 100 µM,> 100 µM,–,> 100 µM,–,> 100 µM,–,> 100 µM,–,–,> 100 µM,–,–,–,> 100 µM,–,> 100 µM
COc1ccc(C(=O)C(c2ccc(OC)cc2)C2(O)C(=O)Nc3c(Cl)cc(Cl)cc32)cc1 (stereo not given),61.2 µM,44 µM,–,56 µM,–,33.2 µM,–,39.3 µM,–,–,39.1 µM,28.4 µM,–,–,39.6 µM,36.2 µM,40.9 µM
Nc1nc(N)c2c(Cl)c(CNc3ccc(Cl)c(Cl)c3)ccc2n1,14 µM,7.37 µM,–,17.7 µM,–,9.36 µM,–,11.8 µM,–,–,14.6 µM,12.3 µM,–,–,7.26 µM,9.41 µM,12.1 µM
c1ccc(-c2sc(-c3ccccc3)c3c2C(c2ccccc2)c2c(-c4ccccc4)sc(-c4ccccc4)c2C3c2ccccc2)cc1 (stereo not given),> 100 µM,> 100 µM,–,> 100 µM,–,> 100 µM,–,> 100 µM,–,–,> 100 µM,> 100 µM,–,–,> 100 µM,–,> 100 µM
O=C1CC[C@@H](S(=O)(=O)c2ccccc2)[C@H](/C=C/c2ccccc2)O1,> 100 µM,> 100 µM,–,> 100 µM,–,–,–,–,–,–,> 100 µM,> 100 µM,–,–,> 100 µM,> 100 µM,> 100 µM
Nc1nc2c(ncn2C2OC(CO)C(O)C2O)c(=O)o1 (stereo not given),> 100 µM,> 100 µM,–,> 100 µM,–,> 100 µM,–,> 100 µM,–,–,> 93.6 µM,> 100 µM,–,–,> 100 µM,–,> 100 µM

# Reference: PubChem BioAssay (NCI)
